{"source": "patent US5693608A", "about": "“Method of administering a biologically active substance” (Bechgaard International Research and Development A/S, priority 1990, dated 1997)", "key": {"rabbit nasal cavity": {"test_system": "rabbit nasal cavity", "test": "Acute toxicological study, rabbit nasal cavity 10 minutes after intranasal application", "type": "in vivo", "details": "for Microscopic Observations (Left Cavity): Table 8, individual rabbit", "experimental": "This study was conducted in order to observe acute changes in the rabbit nasal cavity after a single dose of vehicle in each nasal cavity.\n16 rabbits were randomized into 4 groups of 4 rabbits each. 3 groups received a single intranasal application of one of the test vehicles, 50 μl into each nasal cavity. Each rabbit received only one test compound. One group served as a control receiving the same volume of isotonic sodium chloride saline. 10 minutes after application the rabbits were sacrificed and bled. The right nasal cavity was then opened and evaluated macroscopically. The evaluator was blind as to the dosing scheme. The left nasal cavity was dissected and fixed in neutral buffered formalin for histological evaluation."}, "[1]": {"test": "Plasma clonazepam after intranasal administration in vehicle B (Example 2)", "type": "in vivo, New Zealand White rabbits", "experimental": "50 μl of his preparation was administered into each nasal cavity of male New Zealand White rabbits, held in a supine position during and 1 minute after the application. An Eppendorph pipette was used for the application."}, "[2]": {"test": "Volume of aqueous solution needed to dissolve clinically relevant dose", "type": "physicochemical"}, "rabbits": {"test_system": "rabbits", "test": "Pharmacodynamic response, enhanced by GF (Example 3)", "details": "intranasal 0.25 mg clonazepam in 100 μl", "procedure": "The pharmacodynamic response was tested in New Zealand White rabbits after application of 50 μl of 2.5 mg clonazepam/ml vehicle into each nostril while they were in sitting position. […] Clonazepam was dissolved by ultrasonification."}, "[3]": {"details": "intranasal, adults; cited from earlier work"}, "children": {"test_system": "children", "details": "intranasal, 45 children; cited from earlier work"}, "[4]": {"details": "nasal gel, rats; cited from earlier work"}, "blood glucose level [5]": {"test_system": "blood glucose level", "test": "Blood glucose after intranasal glucagon in hypoglycaemic rabbits (Example 5)", "type": "in vivo, New Zealand White rabbits", "experimental": "4 mg human glucagon in 100 μl phosphate buffer (pH 4) containing 5% GF was applied into both nostrils (50 μl into each) of 5 sitting hypoglycaemic New Zealand White rabbits, weighing about 3 kg. The formulation was prepared by dissolving glucagon in a 7 mM phosphate buffer (pH 2.5), adjusting the pH to 4.0 with 0.1N sodium hydroxide and finally 5% glycofurolum 75 was added. The rabbits were made hypoglycaemic by subcutaneous injection of […] insulin one hour prior to the experiment. Blood samples were continuously withdrawn from the marginal ear vein for blood glucose determination."}, "blood glucose level [6]": {"test_system": "blood glucose level", "test": "Blood glucose after intranasal insulin (Example 4)", "type": "in vivo, New Zealand White rabbits", "details": "rabbits", "experimental": "0.33 mg zinc-free (monomeric) human insulin in 50 μl 12.5 mM phosphate buffer (pH 7.4) containing 5% glycofurol 75 was applied into one nostril of 5 sitting New Zealand White rabbits, weighing about 3 kg. Blood samples of 50 μl were withdrawn from the marginal ear vein after 0, 15, 30, 60 and 120 minutes, and blood glucose level was determined."}}, "note": "“Also recorded” adds a separate entry of the source."}
{"compound": "CC(O)CO", "note": "(stereo not shown) [Propylene glycol (PG), propylene glycol]", "values": [{"measurement": "Microscopic Observations (Left Cavity)", "setting": "rabbit nasal cavity; Level 1", "value": "Edema and congestion"}, {"measurement": "Microscopic Observations (Left Cavity)", "setting": "rabbit nasal cavity; Level 2", "value": "Congestion"}, {"measurement": "Microscopic Observations (Left Cavity)", "setting": "rabbit nasal cavity; Level 3", "value": "Lymphoid aggregates; also recorded: Dilatation of venules"}, {"measurement": "Microscopic Observations (Left Cavity)", "setting": "rabbit nasal cavity; Level 4", "value": "Area of chronic inflammation"}, {"measurement": "Microscopic Results (Left side)", "setting": "rabbit nasal cavity; Table 9 summary, 10 minutes after application, per animal", "value": "Focal haemorrhage"}]}
{"compound": "O=C1CN=C(c2ccccc2Cl)c2cc([N+](=O)[O-])ccc2N1", "note": "[clonazepam]", "values": [{"measurement": "plasma concentration versus i.v. injection (in words)", "setting": "[1]; 0.5 mg, at about 2 minutes", "value": "about the same or even higher, at about 2 minutes, than for an i.v. injection"}, {"measurement": "plasma concentration after 2 1/2 minutes, % of i.v. (CpL(21/2 min))", "setting": "[1]; FIG. 1", "value": "about 100%"}, {"measurement": "Tmax", "setting": "[1]; rabbit, plasma, 0.5 mg, FIG. 1, read-out: peak clonazepam plasma concentration (tmax)", "value": "2 to 3", "unit": "min"}, {"measurement": "volume of aqueous solution to dissolve clinically relevant dose", "setting": "[2]", "value": "> 10", "unit": "mL"}, {"measurement": "time to pharmacodynamic response", "setting": "rabbits", "value": "less than 2 minutes"}]}
{"compound": "CN1C(=O)CN=C(c2ccccc2)c2cc(Cl)ccc21", "note": "[diazepam]", "values": [{"measurement": "peak concentration with reference to i.v. administration", "setting": "[3]", "value": "about 27%"}]}
{"compound": "O=C1Nc2ccc(Cl)cc2C(c2ccccc2Cl)=NC1O", "note": "(stereo not shown) [lorazepam]", "values": [{"measurement": "time to peak concentration", "setting": "[3]", "value": 2.3, "unit": "h"}]}
{"compound": "Cc1ncc2n1-c1ccc(Cl)cc1C(c1ccccc1F)=NC2", "note": "[midazolam]", "values": [{"measurement": "adverse reaction (in words)", "setting": "children", "value": "coughing and sneezing with expulsion of part of the dose"}]}
{"compound": "COC(=O)C1=C(C)NC(C)=C(C(=O)OC)C1c1ccccc1[N+](=O)[O-]", "note": "[nifedipine]", "values": [{"measurement": "plasma peak concentration compared with intravenous administration", "setting": "[4]", "value": "≤ 10", "unit": "%"}]}
{"compound": "glucagon: human glucagon in phosphate buffer (pH 4) containing 5% GF", "values": [{"measurement": "pronounced biological response (blood glucose), time after application", "setting": "blood glucose level [5]", "value": "15-30 minutes"}]}
{"compound": "insulin: zinc-free (monomeric) human insulin in phosphate buffer (pH 7.4) containing 5% glycofurol 75", "values": [{"measurement": "pronounced biological response (blood glucose), time after application", "setting": "blood glucose level [6]", "value": "15-30 minutes"}]}
